Test results reported in ChEMBL document CHEMBL5724914, “Linking interpersonal differences in gut microbiota composition and drug biotransformation activity” (2024).

How the values were obtained:
[1] = (§1) The drug is tested on Z-013 corresponding to rabbit gut metagenome with ENA study accession number: PRJEB37062 and ENA sample accession number: ERS12561813 for biotransformation under anaerobic condition. The drug concentrations were measured over 9 timepoints collected between 0 and 24 hours of incubation by liquid-chromatography-coupled mass spectrometry (LC–MS); conditions: 2 µM
[2] = as §1, with “Z-005” for “Z-013”, “to” for “to rabbit gut”, “ERS12561805” for “ERS12561813”; conditions: 2 µM
[3] = as §1, with “Z-023” for “Z-013”, “to” for “to rabbit gut”, “ERS12561822” for “ERS12561813”; conditions: 2 µM
[4] = as §1, with “Z-029” for “Z-013”, “rat” for “rabbit”, “ERS12561828” for “ERS12561813”; conditions: 2 µM
[5] = human gut metagenome, 24 h, 2 µM
[6] = human gut metagenome, 24 h, 2 µM; remark: listed apart in the source
[7] = human gut metagenome, 24 h, 2 µM; remark: listed apart in the source
[8] = as §1, with “WLS-038” for “Z-013”, “human” for “rabbit”, “ERS12561745” for “ERS12561813”; conditions: 2 µM
[9] = as §1, with “Z-006” for “Z-013”, “mouse” for “rabbit”, “ERS12561806” for “ERS12561813”; conditions: 2 µM
[10] = as §1, with “Z-012” for “Z-013”, “to” for “to rabbit gut”, “ERS12561812” for “ERS12561813”; conditions: 2 µM
[11] = human gut metagenome, 24 h, 2 µM; remark: listed apart in the source
[12] = as §1, with “Z-016” for “Z-013”, “mouse” for “rabbit”, “ERS12561815” for “ERS12561813”; conditions: 2 µM
[13] = as §1, with “Z-008” for “Z-013”, “to” for “to rabbit gut”, “ERS12561808” for “ERS12561813”; conditions: 2 µM
[14] = human gut metagenome, 24 h, 2 µM; remark: listed apart in the source
[15] = as §1, with “Z-020” for “Z-013”, “ERS12561819” for “ERS12561813”; conditions: 2 µM
[16] = human gut metagenome, 24 h, 2 µM; remark: listed apart in the source
[17] = as §1, with “WLS-006” for “Z-013”, “human” for “rabbit”, “ERS12561741” for “ERS12561813”; conditions: 2 µM
[18] = as §1, with “Z-009” for “Z-013”, “pig” for “rabbit”, “ERS12561809” for “ERS12561813”; conditions: 2 µM
[19] = human gut metagenome, 24 h, 2 µM; remark: listed apart in the source
[20] = as §1, with “Z-024” for “Z-013”, “pig” for “rabbit”, “ERS12561823” for “ERS12561813”; conditions: 2 µM
Further: call rule not given here.

Cc1ccc(-c2nc3ccc(C)cn3c2CC(=O)N(C)C)cc1 [ZOLPIDEM]
Bacterial Biotransformation [1]: Compound NOT metabolized | Bacterial Biotransformation [2]: Compound NOT metabolized | Bacterial Biotransformation [3]: Compound metabolized | Bacterial Biotransformation [4]: Compound NOT metabolized | Bacterial Biotransformation [5]: Compound metabolized | Bacterial Biotransformation [6]: Compound metabolized | Bacterial Biotransformation [7]: Compound metabolized | Bacterial Biotransformation [8]: Compound NOT metabolized | Bacterial Biotransformation [9]: Compound NOT metabolized | Bacterial Biotransformation [10]: Compound NOT metabolized | Bacterial Biotransformation [11]: Compound NOT metabolized | Bacterial Biotransformation [12]: Compound NOT metabolized | Bacterial Biotransformation [13]: Compound NOT metabolized | Bacterial Biotransformation [14]: Compound metabolized | Bacterial Biotransformation [15]: Compound NOT metabolized | Bacterial Biotransformation [16]: Compound NOT metabolized | Bacterial Biotransformation [17]: Compound NOT metabolized | Bacterial Biotransformation [18]: Compound metabolized | Bacterial Biotransformation [19]: Compound NOT metabolized | Bacterial Biotransformation [20]: Compound NOT metabolized
